For experiment [1], the target named is HDAC (HeLa nuclear extracts). As to the kind of experiment: HDAC enzyme assay, HeLa nuclear extracts. As to conditions: read-out: In Vitro Enzymatic IC50 HDAC (HeLa).
The test system of a further experiment is K-562. As to the kind of experiment: Anti-proliferative assay (cellular IC50), K-562. As to conditions: Homo sapiens, K562, 72 h, read-out: In Vitro Cellular IC50 K-562.
Another experiment relates to MV-4-11. Briefly: cells. As to conditions: Homo sapiens, MV4-11, 72 h, read-out: In Vitro Cellular IC50 MV-4-11.
A further experiment concerns COLO 205. As to the kind of experiment: cells. As to conditions: Homo sapiens, COLO 205, 72 h, read-out: In Vitro Cellular IC50 COLO 205.
The subject of the next experiment is PC-3. As to the kind of experiment: Anti-proliferative assay (cellular IC50), PC-3. As to conditions: Homo sapiens, PC-3, 72 h, read-out: In Vitro Cellular IC50 PC-3.
Another experiment concerns MCF7. As to the kind of experiment: Anti-proliferative assay (cellular IC50), MCF7. As to conditions: Homo sapiens, MCF7, 72 h, read-out: In Vitro Cellular IC50 MCF7.

Experimental findings from patent US9957270B2, “Fused pyrimidine-based hydroxamate derivatives” (Agency for Science, Technology and Research, priority 2014, dated 2018) are described below.

Some results are limits rather than exact numbers.

Protocol for MCF7: Cells were cultivated at 37° C., 5% CO2 in media containing 10% FBS and 2 mM glutamine Cells were routinely monitored with MycoAlert™ PLUS Mycoplasma Detection Kit (Lonza Walkersville, Inc.) to make sure they were mycoplasma free. Antibiotics (100 U/mL of penicillin and 100 μg/mL of streptomycin) were only added to the media used for compound dilution and cells in 96-well assay plates.
For a typical screening experiment, cells (100 μL/well) are inoculated into 96 well microtiter plates at plating densities ranging from 2,000 to 30,000 cells/well depending on the doubling time of individual cell lines and assay linearity. […] Suspension cells are treated with test compounds immediately after cell inoculation.
Test compounds are serially diluted (3-fold or 4-fold, 8-concentration) using the same media and added to the plates (15 to 25 μL/well). After 72 h of cultivation, the plates are assayed for cell cytotoxicity/viability by using the following two methods.
Cells in plates are fixed with cold trichloroacetic acid (TCA) (50% w/v in DI water, 1/4 volume of the medium in each well), and incubated at 4° C. for 1 h (adherent cells) or 2 h (suspension cells). The plates are washed 5 times (tap water×3, DI water×2) and air-dried. SRB solution 0.4% (w/v) in 1% acetic acid is added to each well (60 μL/well) and the plates are incubated at room temperature for 30 min, then washed with 1% acetic acid solution 4 times, and air-dried.
The plates are added CellTiter-Glo® Reagent (95 μL/well) and read the luminescence on a BioTek H4 reader per manufacture's protocol.
The raw data are processed using BioTek's Software Gen5 (v2.03.01) to generate inhibitory IC50 values.

In the case of `CC(C)n1cnc2c(-c3cccc(NC(=O)CCCC(=O)NO)c3)nc(N3CCOCC3)nc21` [compound 9, N^1-hydroxy-N^5-(3-(9-isopropyl-2-morpholino-9H-purin-6-yl)phenyl)glutaramide], the IC50 in experiment [1] was 100 to 1000 nM.

As for `CC(C)n1cnc2c(-c3ccc(OCCCCCCC(=O)NO)cc3)nc(N3CCOCC3)nc21` [compound 16, N-hydroxy-7-(4-(9-isopropyl-2-morpholino-9H-purin-6-yl)phenoxy)heptanamide], the IC50 in experiment [1] fell in the range of 100 to 1000 nM.

`CCn1c(CN(C)Cc2ccc(/C=C/C(=O)NO)cc2)nc2c(N3CCOCC3)nc(Cl)nc21` [compound 95, (E)-3-(4-((((2-chloro-9-ethyl-6-morpholino-9H-purin-8-yl)methyl)(methyl)amino)methyl)phenyl)-N-hydroxyacrylamide]: the IC50 is 2000 to 10000 nM in the experiment with K-562, 500 to 2000 nM with MV-4-11, 100 to 1000 nM in experiment [1] and above 10000 nM in the experiment with COLO 205.

Regarding `CC(C)n1cnc2c(-c3ccc(COCC(=O)NO)cc3)nc(N3CCOCC3)nc21` [compound 32, N-hydroxy-2-((4-(9-isopropyl-2-morpholino-9H-purin-6-yl)benzyl)oxy)acetamide], the IC50 in experiment [1] lay in the range of 1000 to 10000 nM.

In the case of `CC(C)n1cnc2c(-c3cccc(CNCCCCCC(=O)NO)c3)nc(N3CCOCC3)nc21` [compound 36, N-hydroxy-6-((3-(9-isopropyl-2-morpholino-9H-purin-6-yl)benzyl)amino)hexanamide], the concentration for half-maximal inhibition (IC50) in experiment [1] lay within 10 to 100 nM.

Consider `CC(C)n1cnc2c(-c3ccc(OCCCCCC(=O)NO)cc3)nc(N3CCOCC3)nc21` [compound 15, N-hydroxy-6-(4-(9-isopropyl-2-morpholino-9H-purin-6-yl)phenoxy)hexanamide], for which the IC50 in experiment [1] was in the range of 100 to 1000 nM.

`COc1ccc(-c2nc(N3CCOCC3)c3ncn(CCCCC(=O)NO)c3n2)cn1` [compound 58, N-hydroxy-5-(2-(6-methoxypyridin-3-yl)-6-morpholino-9H-purin-9-yl)pentanamide]: the IC50 in the experiment on K-562 was 2000 to 10000 nM; in the experiment on MV-4-11 it was 500 to 2000 nM; in experiment [1], 100 to 1000 nM; in the experiment with COLO 205, 2000 to 10000 nM.

Regarding `O=C(CCCCCn1cnc2c(N3CCOCC3)nc(-c3ccc(F)c(OCCO)c3)nc21)NO` [compound 65, 6-(2-(4-fluoro-3-(2-hydroxyethoxy)phenyl)-6-morpholino-9H-purin-9-yl)-N-hydroxyhexanamide], the IC50 was above 10000 nM in the experiment on MV-4-11, below 10 nM in experiment [1], above 10000 nM in the experiment with PC-3 and above 10000 nM in the experiment on COLO 205.

`CC(C)n1cnc2c(-c3cccc(NC(=O)CCCCCCCC(=O)NO)c3)nc(N3CCOCC3)nc21` [compound 8, N^1-hydroxy-N^9-(3-(9-isopropyl-2-morpholino-9H-purin-6-yl)phenyl)nonanediamide]: in experiment [1], the IC50 fell in the range of 10 to 100 nM.

As to `CC(C)n1cnc2c(-c3cccc(OCCCCCCC(=O)NO)c3)nc(N3CCOCC3)nc21` [compound 12, N-hydroxy-7-(3-(9-isopropyl-2-morpholino-9H-purin-6-yl)phenoxy)heptanamide], in experiment [1], the IC50 fell in the range of 10 to 100 nM.

Consider `CCCn1cnc2c(-c3ccc(F)c(OCCCC(=O)NO)c3)nc(N3CCCC3)nc21` [compound 66, 4-(2-fluoro-5-(9-propyl-2-(pyrrolidin-1-yl)-9H-purin-6-yl)phenoxy)-N-hydroxybutanamide], for which the IC50 with MV-4-11 was in the range of 500 to 2000 nM; in experiment [1], 100 to 1000 nM; in the experiment on PC-3 it was 2000 to 10000 nM; in the experiment on COLO 205 it was 2000 to 10000 nM.

Take `CCn1c(CN(C)Cc2ccc(/C=C/C(=O)NO)cc2)nc2c(N3CCOCC3)nc(-c3ccc(OC)nc3)nc21` [compound 93, (E)-3-(4-((((9-ethyl-2-(6-methoxypyridin-3-yl)-6-morpholino-9H-purin-8-yl)methyl)(methyl)amino)methyl)phenyl)-N-hydroxyacrylamide]: the IC50 is 2000 to 10000 nM in the experiment with MCF7; 2000 to 10000 nM in the experiment with K-562; 500 to 2000 nM with MV-4-11; 1000 to 10000 nM in experiment [1]; 2000 to 10000 nM in the experiment with PC-3; 2000 to 10000 nM in the experiment on COLO 205.

In the case of `CCn1c(CN(C)Cc2ccc(/C=C/C(=O)NO)cc2)nc2c(N3CCOCC3)nc(-c3ccc(NS(C)(=O)=O)cc3)nc21` [compound 94, (E)-3-(4-((((9-ethyl-2-(4-(methylsulfonamido)phenyl)-6-morpholino-9H-purin-8-yl)methyl)(methyl)amino)methyl)phenyl)-N-hydroxyacrylamide], the IC50 lay within 2000 to 10000 nM in the experiment with K-562, 500 to 2000 nM in the experiment with MV-4-11, 100 to 1000 nM in experiment [1] and 2000 to 10000 nM in the experiment on COLO 205.

Turning to `CC(C)n1cnc2c(-c3ccc(OCCCCC(=O)NO)cc3)nc(N3CCOCC3)nc21` [compound 14, N-hydroxy-5-(4-(9-isopropyl-2-morpholino-9H-purin-6-yl)phenoxy)pentanamide], in experiment [1], the IC50 lay in the range of 100 to 1000 nM.

For the compound `CC(C)n1cnc2c(-c3ccc(COCCCCCCC(=O)NO)cc3)nc(N3CCOCC3)nc21` [compound 22, N-hydroxy-7-((4-(9-isopropyl-2-morpholino-9H-purin-6-yl)benzyl)oxy)heptanamide], in experiment [1], the IC50 lay in the range of 1000 to 10000 nM.

For `CC(C)n1cnc2c(-c3cccc(OCCCCCC(=O)NO)c3)nc(N3CCOCC3)nc21` [compound 11, N-hydroxy-6-(3-(9-isopropyl-2-morpholino-9H-purin-6-yl)phenoxy)hexanamide], the concentration for half-maximal inhibition (IC50) in experiment [1] fell in the range of 10 to 100 nM.

For the compound `Nc1ccc(-c2nc(N3CCOCC3)c3ncn(CCCCC(=O)NO)c3n2)cn1` [compound 59, 5-(2-(6-aminopyridin-3-yl)-6-morpholino-9H-purin-9-yl)-N-hydroxypentanamide], the half-inhibitory concentration (IC50) is above 10000 nM in the experiment on K-562, 500 to 2000 nM with MV-4-11, 1000 to 10000 nM in experiment [1] and above 10000 nM in the experiment on COLO 205.

`Cc1c(CN2CCN(C(=O)[C@H](C)O)CC2)sc2c(N3CCOCC3)nc(-c3cnc(N)nc3)nc12` [GDC-0980, reference compound]: the IC50 in the experiment with MCF7 was 2000 to 10000 nM; with K-562, 2000 to 10000 nM; in the experiment with MV-4-11 it was above 10000 nM; in the experiment with COLO 205, below 500 nM.

Regarding `CCn1cnc2c(-c3ccc(F)c(OCCCC(=O)NO)c3)nc(N3CCOCC3)nc21` [compound 68, 4-(5-(9-ethyl-2-morpholino-9H-purin-6-yl)-2-fluorophenoxy)-N-hydroxybutanamide], the IC50 was 500 to 2000 nM in the experiment on MV-4-11, 100 to 1000 nM in experiment [1], 2000 to 10000 nM in the experiment on PC-3 and 2000 to 10000 nM in the experiment on COLO 205.

As to `O=C(CCCCCCn1cnc2c(N3CCCC3)nc(N3CCCC3)nc21)NO` [compound 99, 7-(2,6-di(pyrrolidin-1-yl)-9H-purin-9-yl)-N-hydroxyheptanamide], the IC50 in the experiment on MV-4-11 is 500 to 2000 nM; in experiment [1], below 10 nM; in the experiment on PC-3, 2000 to 10000 nM; in the experiment with COLO 205, 2000 to 10000 nM.

`CC(C)n1cnc2c(-c3ccc(COCCCCC(=O)NO)cc3)nc(N3CCOCC3)nc21` [compound 20, N-hydroxy-5-((4-(9-isopropyl-2-morpholino-9H-purin-6-yl)benzyl)oxy)pentanamide]: the IC50 in experiment [1] lay in the range of 100 to 1000 nM.

Turning to `CCCn1cnc2c(-c3ccc(F)c(OCCCC(=O)NO)c3)nc(N3CCOCC3)nc21` [compound 69, 4-(2-fluoro-5-(2-morpholino-9-propyl-9H-purin-6-yl)phenoxy)-N-hydroxybutanamide], the IC50 in the experiment on MV-4-11 lay within 500 to 2000 nM; in experiment [1], 100 to 1000 nM; with PC-3, 2000 to 10000 nM; with COLO 205 it was 2000 to 10000 nM.

Consider `CC(C)n1cnc2c(-c3cccc(CNCc4ccc(C(=O)NO)cc4)c3)nc(N3CCOCC3)nc21` [compound 35, N-hydroxy-4-(((3-(9-isopropyl-2-morpholino-9H-purin-6-yl)benzyl)amino)methyl)benzamide], for which, in experiment [1], the IC50 is 100 to 1000 nM.

`CC(C)n1cnc2c(-c3ccc(F)c(OCCCC(=O)NO)c3)nc(N3CCCC3)nc21` [compound 63, 4-(2-fluoro-5-(9-isopropyl-2-(pyrrolidin-1-yl)-9H-purin-6-yl)phenoxy)-N-hydroxybutanamide]: the IC50 with MV-4-11 lay in the range of 500 to 2000 nM; in experiment [1], 10 to 100 nM; in the experiment on PC-3, 2000 to 10000 nM; in the experiment on COLO 205 it was 2000 to 10000 nM.

As for `CC(C)n1cnc2c(-c3ccc(OCC(=O)NO)cc3)nc(N3CCOCC3)nc21` [compound 33, N-hydroxy-2-(4-(9-isopropyl-2-morpholino-9H-purin-6-yl)phenoxy)acetamide], in experiment [1], the IC50 is 1000 to 10000 nM.

In the case of `CC(C)n1cnc2c(-c3cccc(CN4CCC(C(=O)NO)CC4)c3)nc(N3CCOCC3)nc21` [compound 34, N-hydroxy-1-(3-(9-isopropyl-2-morpholino-9H-purin-6-yl)benzyl)piperidine-4-carboxamide], the IC50 in experiment [1] is 1000 to 10000 nM.

Take `CC(C)n1cnc2c(-c3ccc(OCCCC(=O)NO)cc3)nc(N3CCOCC3)nc21` [compound 13, N-hydroxy-4-(4-(9-isopropyl-2-morpholino-9H-purin-6-yl)phenoxy)butanamide]: the IC50 in experiment [1] lay within 1000 to 10000 nM.

With `CC(C)n1cnc2c(-c3ccc(COCCCCCC(=O)NO)cc3)nc(N3CCOCC3)nc21` [compound 21, N-hydroxy-6-((4-(9-isopropyl-2-morpholino-9H-purin-6-yl)benzyl)oxy)hexanamide], the IC50 in experiment [1] lay within 100 to 1000 nM.

In the case of `CC(C)n1cnc2c(-c3cccc(COCC(=O)NO)c3)nc(N3CCOCC3)nc21` [compound 42, N-hydroxy-2-((3-(9-isopropyl-2-morpholino-9H-purin-6-yl)benzyl)oxy)acetamide], the IC50 in experiment [1] lay within 100 to 1000 nM.
